Reference: publication PMC10245560 (bioRxiv, 2023)

Tests used:
[1] = system: B. subtilis 168; assay: Bacterial cell wall integrity; format: cell-based; details: phase-contrast microscopy
[2] = HS-AFM of fibrils on supported lipid bilayers; format: physicochemical; details: supported lipid bilayer with lipid II, errors are standard deviation, SD
[3] = system: B. subtilis; details: ref Fage et al., 2020; cited from earlier work

Compound	cell-shape deformations / blebbing phenotype [1]	height of fibrils above the membrane surface [2] [nm]	activity against B. subtilis [3]
hypeptin	similarly observed	–	–
CN[C@H](CC(C)C)C(=O)N[C@H]1C(=O)N[C@@H](CC(N)=O)C(=O)N[C@H]2C(=O)N[C@H]3C(=O)N[C@H](C(=O)N[C@H](C(=O)O)c4cc(O)cc(O)c4-c4cc3ccc4O)[C@H](O)c3ccc(c(Cl)c3)Oc3cc2cc(c3O[C@@H]2O[C@H](CO)[C@@H](O)[C@H](O)[C@H]2O[C@H]2C[C@](C)(N)[C@H](O)[C@H](C)O2)Oc2ccc(cc2Cl)[C@H]1O [vancomycin]	similarly observed	–	–
teixobactin	similarly observed	0.8 ± 0.1	–
C=C(CC/C=C\C=C\C[C@H](C)CC(=O)C[C@@H](O)CNC(=O)[C@H](C)[C@@H](C)OC(N)=O)C[C@@H](C)C/C(C)=C/C(=O)O [kalimantacin]	–	–	not active
